Results: patent US20070155835A1, “USE OF ORTHO-PH[…]/OR DERIVATIVES THEREOF FOR INHIBITING THE ASEXUAL REPRODUCTION OF FUNGI” (Henkel Kommanditgesellschaft auf Aktien (Henkel KGaA), priority 2004, published 2007)

Legend:
[1] = tested on: Aspergillus niger (DSM1988); test: Sporulation of Aspergillus niger on wort agar plates containing active substance, assessed visually; assay type: cell-based
Description: (§1) The surfaces of wort agar plates were each contaminated with 100 μl of a germ suspension (10^3 CFU/ml) of Aspergillus niger (DSM1988). Different quantities of active substance (solutions in ethanol, see table for final concentrations) had previously been added to the agar plates. The plates were incubated for 3 days at 25° C. Sporulation was assessed visually, and the sporulation rate (in %) was determined.
as §1

[2] = tested on: Aspergillus niger (DSM1988); test: Growth of the test strain on wort agar plates containing active substance; assay type: cell-based
Description: as §1, with “determined. […] A growth-inhibiting or germ-killing effect occurred only at a concentration of 0.05 wt % OPP.” for “determined.”
as §1

CC(C)=CCCC(C)=CCCC(C)=CCO [Farnesol, reference compound]
Sporulation [%] ([1]; Farnesol concentration 25 μM, comparative experiment): 90%
Sporulation [%] ([1]; Farnesol concentration 62.5 μM, comparative experiment): 75%
Sporulation [%] ([1]; Farnesol concentration 125 μM, comparative experiment): 50%
Sporulation [%] ([1]; Farnesol concentration 250 μM, comparative experiment): 10%
Sporulation [%] ([1]; Farnesol concentration 500 μM, comparative experiment): 0%

Oc1ccccc1-c1ccccc1 [OPP, Ortho-Phenylphenol]
Concentration at which a growth-inhibiting or germ-killing effect occurred ([2]; wort agar, 3 days at 25° C.): 0.05 wt %
Sporulation [%] ([1]; OPP concentration 0.00001 %, wort agar, 3 days at 25° C.): 95%
Sporulation [%] ([1]; OPP concentration 0.00005 %, wort agar, 3 days at 25° C.): 95%
Sporulation [%] ([1]; OPP concentration 0.0001 %, wort agar, 3 days at 25° C.): 85%
Sporulation [%] ([1]; OPP concentration 0.0005 %, wort agar, 3 days at 25° C.): 10%
Sporulation [%] ([1]; OPP concentration 0.001 %, wort agar, 3 days at 25° C.): 0%
Sporulation [%] ([1]; OPP concentration 0.005 %, wort agar, 3 days at 25° C.): 0%
Sporulation [%] ([1]; OPP concentration 0.05 %, wort agar, 3 days at 25° C.): no growth
Sporulation [%] ([1]; OPP concentration 0.1 %, wort agar, 3 days at 25° C.): no growth
Sporulation [%] ([1]; OPP concentration 1.0 %, wort agar, 3 days at 25° C.): no growth
Concentration completely suppressing sporulation relative to growth-inhibiting or germ-killing concentration ([1]; no growth-inhibiting effect at that concentration): fifty times lower
Utilization concentration at which sporulation was completely suppressed ([1]; wort agar, 3 days at 25° C.): 0.001 wt %

Ortho-Phenylphenol/Silicic Acid Ester [OPP/SAE]
Effect of the concentrations used on growth of the test strain ([2]; concentrations of the tables, unless otherwise indicated in the tables): did not prevent growth of the test strain
Sporulation [%] ([1]; OPP/SEA concentration 0.00001 %, wort agar, 3 days at 25° C.): 95%
Sporulation [%] ([1]; OPP/SEA concentration 0.00005 %, wort agar, 3 days at 25° C.): 95%
Sporulation [%] ([1]; OPP/SEA concentration 0.0001 %, wort agar, 3 days at 25° C.): 95%
Sporulation [%] ([1]; OPP/SEA concentration 0.0005 %, wort agar, 3 days at 25° C.): 50%
Sporulation [%] ([1]; OPP/SEA concentration 0.001 %, wort agar, 3 days at 25° C.): 25%
Sporulation [%] ([1]; OPP/SEA concentration 0.005 %, wort agar, 3 days at 25° C.): 0%
Sporulation [%] ([1]; OPP/SEA concentration 0.01 %, wort agar, 3 days at 25° C.): 0%
Utilization concentration at which sporulation was completely suppressed ([1]; wort agar, 3 days at 25° C.): 0.005 wt %
